Results as given in ChEMBL document CHEMBL4303084, “Identification of antiviral drug candidates against SARS-CoV-2 from FDA-approved drugs” (2020).
pIC50: −log10 of the molar value. Starred links: 1 amine or outer side, 2 acyl side, 3 side chain; linkers in the order of their positions; H or OH if unused. Positions of bridges follow the written chain, without caps; N, C: chain ends. Non-standard residues stand in square brackets, D forms with d. Residues, ends and D or L forms follow the SMILES beside them. *: point of attachment. pTerphenylCO(4''-OnC5H11) = CCCCCOc1ccc(-c2ccc(-c3ccc(C(=O)*)cc3)cc2)cc1; Orn(4R-OH,5R-OH) = O=C([C@H](C[C@@H](O)[C@@H](O)N[*:3])N[*:1])[*:2]; hTyr(3S-OH,4S-OH) = N[C@H](C(=O)O)[C@H](O)[C@@H](O)c1ccc(O)cc1; Pro(3S-OH,4S-Me) = C[C@H]1CN[C@H](C(=O)O)[C@H]1O; Hyp = O=C(O)[C@@H]1C[C@@H](O)CN1

Key:
[1] = Cell viability measured by CellTiter-Glo assay in Vero cells at MOI 0.05 after 72hr; details: chlorocebus sabaeus
SARS-CoV-2 = test: microbe, parasite or virus in culture; type: functional, organism-based, Chlorocebus sabaeus; details: Severe acute respiratory syndrome coronavirus 2, Vero, 24 h
[2] = Selectivity index for antiviral vs cytotoxic activity in Vero cells (CC50/IC50); details: monkey

Compound | CC50 at 72 h ([1]; Vero cells) | pIC50 (SARS-CoV-2) | selectivity ratio ([2]; Vero cells) | selectivity ratio ([2]; vero) | CC50 at 72 h ([1]; vero)
CN(C)CCOc1ccc(/C(=C(/CCCl)c2ccccc2)c2ccccc2)cc1 [TOREMIFENE] | 10.1 µM | 5.45 | 2.82 |  | 
CC(=O)O[C@H]1C[C@H](O[C@H]2[C@@H](O)C[C@H](O[C@H]3[C@@H](O)C[C@H](O[C@H]4CC[C@@]5(C)[C@H](CC[C@@H]6[C@@H]5C[C@@H](O)[C@]5(C)[C@@H](C7=CC(=O)OC7)CC[C@]65O)C4)O[C@@H]3C)O[C@@H]2C)O[C@H](C)[C@H]1O[C@@H]1O[C@H](CO)[C@@H](O)[C@H](O)[C@H]1O [LANATOSIDE C] | > 50 µM | < 4.30 | 1 |  | 
CCC(CC)COC(=O)[C@H](C)N[P@](=O)(OC[C@H]1O[C@@](C#N)(c2ccc3c(N)ncnn23)[C@H](O)[C@@H]1O)Oc1ccccc1 | > 25 µM |  |  |  | 
CCN1CCN(Cc2ccc(Nc3ncc(F)c(-c4cc(F)c5nc(C)n(C(C)C)c5c4)n3)nc2)CC1 [ABEMACICLIB] | > 50 µM | 5.18 |  |  | 
c1ccc2c(c1)Sc1ccccc1N2CC1CN2CCC1CC2 (centres undefined) [MEQUITAZINE] | 27.3 µM | 5.14 | 3.76 |  | 
CCN(CC)CCCC(C)Nc1c2ccc(Cl)cc2nc2ccc(OC)cc12 (centres undefined) [QUINACRINE] | 14.7 µM | < 4.30 |  | 0.29 | 
CCCCCCO[C@@H](C)c1cccc(-c2csc(NC(=O)c3cc(Cl)c(/C=C(\C)C(=O)O)c(Cl)c3)n2)c1OC [LUSUTROMBOPAG] | 14.6 µM | 5.42 | 3.87 |  | 
CN(C)C(=O)COC(=O)Cc1ccc(OC(=O)c2ccc(NC(=N)N)cc2)cc1 [CAMOSTAT] | > 50 µM | < 4.30 |  |  | 
CC(C)(C)c1ccc(C(=O)CCCN2CCC(OC(c3ccccc3)c3ccccc3)CC2)cc1 [EBASTINE] |  |  |  |  | 15.4 µM
Cc1cc(Nc2ncc(Cl)c(Nc3ccccc3S(=O)(=O)C(C)C)n2)c(OC(C)C)cc1C1CCNCC1 [CERITINIB] | 6.84 µM | 5.54 | 2.39 |  | 
CN(C)C(=O)C(CCN1CCC(O)(c2ccc(Cl)cc2)CC1)(c1ccccc1)c1ccccc1 [LOPERAMIDE] | 29.3 µM |  |  |  | 
CC(C)(C)c1cc(C(C)(C)C)c(NC(=O)c2c[nH]c3ccccc3c2=O)cc1O [IVACAFTOR] | 27.3 µM | 5.18 | 3.76 |  | 
O=C(Nc1ccc([N+](=O)[O-])cc1Cl)c1cc(Cl)ccc1O [NICLOSAMIDE] | > 50 µM |  |  |  | 
CCN(CC)CCOc1ccc(C(=C(Cl)c2ccccc2)c2ccccc2)cc1 [CLOMIPHENE] | 15 µM | 5.27 | 2.8 |  | 
CCN(CC)Cc1cc(Nc2ccnc3cc(Cl)ccc23)ccc1O [AMODIAQUINE] | > 50 µM | 5.29 |  |  | 
Cc1cccc(C)c1OCC(=O)N[C@@H](Cc1ccccc1)[C@@H](O)C[C@H](Cc1ccccc1)NC(=O)[C@H](C(C)C)N1CCCNC1=O [LOPINAVIR] | > 50 µM | 5.04 |  |  | 
C[C@H]1O[C@@H](O[C@H]2[C@@H](O)C[C@H](O[C@H]3[C@@H](O)C[C@H](O[C@H]4CC[C@@]5(C)[C@H](CC[C@@H]6[C@@H]5CC[C@]5(C)[C@@H](C7=CC(=O)OC7)CC[C@]65O)C4)O[C@@H]3C)O[C@@H]2C)C[C@H](O)[C@@H]1O [DIGITOXIN] | > 50 µM | > 6.64 | 214 |  | 
CCCCCC(=O)O[C@]1(C(C)=O)CC[C@H]2[C@@H]3CCC4=CC(=O)CC[C@]4(C)[C@H]3CC[C@@]21C [HYDROXYPROGESTERONE CAPROATE] | > 50 µM | 5.20 | 7.93 |  | 
COc1cc2c3cc1Oc1c(OC)c(OC)cc4c1[C@@H](Cc1ccc(O)c(c1)Oc1ccc(cc1)C[C@@H]3N(C)CC2)N(C)CC4 [BERBAMINE] | > 50 µM | 5.10 | 6.35 |  | 
OC1(c2ccc(Cl)c(C(F)(F)F)c2)CCN(CCCC(c2ccc(F)cc2)c2ccc(F)cc2)CC1 [PENFLURIDOL] | 8.77 µM | 5.30 | 1.75 |  | 
CC(C)=CCCC1(C)C=Cc2c(O)c3c(c(CC=C(C)C)c2O1)OC12C(=CC4CC1C(C)(C)OC2(C/C=C(/C)C(=O)O)C4O)C3=O (centres undefined) [DIHYDROGAMBOGIC ACID] | 9.85 µM | 4.87 | 0.74 |  | 
Oc1c(Cl)cc(Cl)c(Cl)c1Cc1c(O)c(Cl)cc(Cl)c1Cl [HEXACHLOROPHENE] | 19.3 µM | 6.05 | 21.6 |  | 
CCCCc1oc2ccc(NS(C)(=O)=O)cc2c1C(=O)c1ccc(OCCCN(CCCC)CCCC)cc1 [DRONEDARONE] | 8.75 µM | 5.41 | 2.23 |  | 

Compound | CC50 at 72 h ([1]; Vero cells) | pIC50 (SARS-CoV-2) | selectivity ratio ([2]; Vero cells) | selectivity ratio ([2]; vero) | CC50 at 72 h ([1]; vero)
C=CC(=O)Nc1cc(Nc2nccc(-c3cn(C)c4ccccc34)n2)c(OC)cc1N(C)CCN(C)C [OSIMERTINIB] | 13.2 µM | 5.49 | 4.05 |  | 
C1CCC(C(CC2CCCCN2)C2CCCCC2)CC1 (centres undefined) [PERHEXILINE] | 8.67 µM | 5.20 | 1.36 |  | 
CSc1ccc2c(c1)N(CCC1CCCCN1C)c1ccccc1S2 (centres undefined) [THIORIDAZINE] | 16 µM | 5.17 | 2.39 |  | 
OC(c1cc(C(F)(F)F)nc2c(C(F)(F)F)cccc12)C1CCCCN1 (centres undefined) [MEFLOQUINE] | 14 µM | 5.36 | 3.22 |  | 
CC1(C)C=Cc2c(c3c(c4c(=O)c(-c5ccc(O)cc5)coc24)OC(C)(C)CC3)O1 | 9.89 µM | 5.49 | 3.07 |  | 
Nc1ccc(/N=N/c2ccccc2)c(N)n1 [PHENAZOPYRIDINE] | > 50 µM | 4.55 |  |  | 
C[C@H]1O[C@@H](O[C@H]2[C@@H](O)C[C@H](O[C@H]3[C@@H](O)C[C@H](O[C@H]4CC[C@@]5(C)[C@H](CC[C@@H]6[C@@H]5C[C@@H](O)[C@]5(C)[C@@H](C7=CC(=O)OC7)CC[C@]65O)C4)O[C@@H]3C)O[C@@H]2C)C[C@H](O)[C@@H]1O [DIGOXIN] | > 50 µM | 6.72 | 257 |  | 
CC[C@@H](C(=O)[C@@H](C)[C@@H](O)[C@H](C)[C@@H]1O[C@@H]([C@@H](CC)C(=O)O)CC[C@@H]1C)[C@H]1O[C@]2(C=C[C@@H](O)[C@]3(CC[C@@](C)([C@H]4CC[C@](O)(CC)[C@H](C)O4)O3)O2)[C@H](C)C[C@@H]1C [SALINOMYCIN] | > 50 µM | 6.62 | 211 |  | 
CCN(CC)CCOc1ccc2c(c1)C(=O)c1cc(OCCN(CC)CC)ccc1-2 [TILORONE] | 19.7 µM | 5.39 | 4.81 |  | 
CCc1nc(C(N)=O)c(Nc2ccc(N3CCC(N4CCN(C)CC4)CC3)c(OC)c2)nc1NC1CCOCC1 [GILTERITINIB] | 37.2 µM | 5.17 | 5.5 |  | 
O=C(Nc1cc(Cl)cc(Cl)c1O)c1c(O)c(Cl)cc(Cl)c1Cl [OXYCLOZANIDE] | > 50 µM | 5.43 |  |  | 
CCN(CC)CCCC(C)Nc1ccnc2cc(Cl)ccc12 (centres undefined) [CHLOROQUINE] | > 150 µM |  |  |  | 
CCN(CC)CCOc1ccc(C(O)(Cc2ccc(Cl)cc2)c2ccc(C)cc2)cc1 (centres undefined) [TRIPARANOL] | 14.7 µM | 5.15 | 2.09 |  | 
Cc1c(-c2ccc(O)cc2)n(Cc2ccc(OCCN3CCCCCC3)cc2)c2ccc(O)cc12 [BAZEDOXIFENE] | 15 µM |  |  |  | 
COc1ccc2cc1Oc1ccc(cc1)C[C@H]1c3cc(c(OC)cc3CCN1C)Oc1c(OC)c(OC)cc3c1[C@H](C2)N(C)CC3 [FANCHININ] | 14.9 µM | 5.52 | 4.97 |  | 
COc1ccc2cc1Oc1ccc(cc1)C[C@H]1c3c(cc4c(c3Oc3cc5c(cc3OC)CCN(C)[C@@H]5C2)OCO4)CCN1C [CEPHARANTHINE] | > 50 µM | 5.35 | 11.2 |  | 
C[C@@H]1O[C@@H](O[C@@H]2C=C3CC[C@@H]4[C@H](CC[C@]5(C)[C@@H](c6ccc(=O)oc6)CC[C@]45O)[C@@]3(C)CC2)[C@H](O)[C@H](O)[C@H]1O [PROSCILLARIDIN] | > 50 µM | 5.69 | 24.5 |  | 
C[C@@H]1O[C@@H](O[C@H]2C[C@@H](O)[C@]3(CO)[C@H]4[C@H](O)C[C@]5(C)[C@@H](C6=CC(=O)OC6)CC[C@]5(O)[C@@H]4CC[C@]3(O)C2)[C@H](O)[C@H](O)[C@H]1O [OUABAIN OCTAHYDRATE] | > 50 µM | > 7.01 | 516 |  | 
CC(C)C(=O)OCC(=O)[C@@]12O[C@H](C3CCCCC3)O[C@@H]1C[C@H]1[C@@H]3CCC4=CC(=O)C=C[C@]4(C)[C@H]3[C@@H](O)C[C@@]12C [CICLESONIDE] | > 50 µM | 5.36 | 11.6 |  | 
CC(C)=CCc1c2c(c3occ(-c4ccc(O)cc4)c(=O)c3c1O)C=CC(C)(C)O2 [OSAJIN] | 11.4 µM | 5.41 | 2.95 |  | 
CC1=NN(c2ccc(C)c(C)c2)C(=O)/C1=N\Nc1cccc(-c2cccc(C(=O)O)c2)c1O [ELTROMBOPAG] | > 50 µM | 5.08 |  |  | 
CCCCCOc1ccc(-c2ccc(-c3ccc(C(=O)N[C@H]4C[C@@H](O)[C@@H](O)NC(=O)[C@@H]5[C@@H](O)[C@@H](C)CN5C(=O)[C@H]([C@@H](C)O)NC(=O)[C@H]([C@H](O)[C@@H](O)c5ccc(O)cc5)NC(=O)[C@@H]5C[C@@H](O)CN5C(=O)[C@H]([C@@H](C)O)NC4=O)cc3)cc2)cc1 [ANIDULAFUNGIN] ({pTerphenylCO(4''-OnC5H11)}-[Orn(4R-OH,5R-OH)]T[Hyp][hTyr(3S-OH,4S-OH)]T[Pro(3S-OH,4S-Me)]; lactam 1-C) | > 50 µM | 5.33 | 10.8 |  | 
CC/C(=C(/c1ccc(OCCN(C)C)cc1)c1cccc(O)c1)c1ccccc1 [DROLOXIFENE] | 15.8 µM | 5.18 | 2.4 |  | 
